Relative viability data for four cell lines are collected here from the supplement of paper PMC10307832.

Holding throughout (assay): relative viability (nuclei count vs DMSO), 5 days (fraction); higher = more cells survive
Compound in one assay: O=C(NCCCNc1nc(Nc2cccc(NC(=O)N3CCCC3)c2)ncc1I)c1cccs1 [BX 795]
The method, boiled down: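 A plate was accepted only when its control CV was below 25% and the cells had doubled at least once. Viability is defined from nuclear counts as treated wells divided by vehicle wells, with the median taken across plates. That median covers lung cancer cell lines grown in 1536-well plates, dosed by pinning at five √10-spaced library-drug concentrations, and counted in MetaXpress from 4× Hoechst images after 5 days.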

Compound in the assay “BX 795 + Linsitinib”: O=C(NCCCNc1nc(Nc2cccc(NC(=O)N3CCCC3)c2)ncc1I)c1cccs1 [BX 795] + C[C@]1(O)C[C@@H](c2nc(-c3ccc4ccc(-c5ccccc5)nc4c3)c3c(N)nccn32)C1 [Linsitinib] (partner 1 µM)
The method, boiled down:
(§1)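 Medians of duplicate plates are given as relative viability. That measure is the nuclei count in treated wells divided by the count in vehicle wells. Counts were taken on 4× images of lung cancer cell lines in 1536-well plates, 5 days after pin-tool dosing the day after seeding with one drug alone or a fixed anchor-drug dose plus five library-drug doses (not always all listed) in √10 steps.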

Compound in the assay “BX 795 + Dasatinib”: O=C(NCCCNc1nc(Nc2cccc(NC(=O)N3CCCC3)c2)ncc1I)c1cccs1 [BX 795] + Cc1nc(Nc2ncc(C(=O)Nc3c(C)cccc3Cl)s2)cc(N2CCN(CCO)CC2)n1 [Dasatinib] (partner 0.075 µM)
Summed up: as §1

Compound in the assay “BX 795 + Phenformin”: O=C(NCCCNc1nc(Nc2cccc(NC(=O)N3CCCC3)c2)ncc1I)c1cccs1 [BX 795] + N=C(N)NC(=N)NCCc1ccccc1 [Phenformin] (partner 250 µM)
Summed up: as §1

Compound in the assay “BX 795 + AZD7762”: O=C(NCCCNc1nc(Nc2cccc(NC(=O)N3CCCC3)c2)ncc1I)c1cccs1 [BX 795] + NC(=O)Nc1cc(-c2cccc(F)c2)sc1C(=O)N[C@H]1CCCNC1 [AZD7762] (partner 0.2 µM)
Summed up:
as §1

Take NCI-H1944: the relative viability with BX 795 (0.04 µM) was 1.06; in the assay with BX 795 (0.1265 µM), 0.996; in the assay with BX 795 (0.4 µM) it was 1.16; in the assay with BX 795 (1.265 µM), 0.958; with BX 795 + Linsitinib (first compound 0.04 µM), 1.25; with BX 795 + Linsitinib (first compound 0.1265 µM) it was 1.36. Besides, the relative viability stood at 1.14 in the assay with BX 795 + Linsitinib (first compound 0.4 µM); 1.1 in the assay with BX 795 + Linsitinib (first compound 1.265 µM); 0.241 in the assay with BX 795 + Dasatinib (first compound 0.04 µM); 0.219 with BX 795 + Dasatinib (first compound 0.1265 µM); 0.201 in the assay with BX 795 + Dasatinib (first compound 0.4 µM); 0.194 with BX 795 + Dasatinib (first compound 1.265 µM). In addition, the relative viability in the assay with BX 795 + Phenformin (first compound 0.04 µM) amounted to 0.254; in the assay with BX 795 + Phenformin (first compound 0.1265 µM) it was 0.203; with BX 795 + Phenformin (first compound 0.4 µM), 0.234; in the assay with BX 795 + Phenformin (first compound 1.265 µM) it was 0.191; in the assay with BX 795 + AZD7762 (first compound 0.04 µM), 0.531; with BX 795 + AZD7762 (first compound 0.1265 µM) it was 0.555. Also, the relative viability was 0.48 in the assay with BX 795 + AZD7762 (first compound 0.4 µM) and 0.531 with BX 795 + AZD7762 (first compound 1.265 µM).

Regarding BEN, the relative viability came to 0.907 with BX 795 (0.04 µM); 1.12 with BX 795 (0.1265 µM); 0.952 in the assay with BX 795 (0.4 µM); 1.05 in the assay with BX 795 (1.265 µM); 0.996 with BX 795 + Linsitinib (first compound 0.04 µM); 0.944 with BX 795 + Linsitinib (first compound 0.1265 µM). In addition, the relative viability with BX 795 + Linsitinib (first compound 0.4 µM) worked out at 0.842; in the assay with BX 795 + Linsitinib (first compound 1.265 µM), 0.864; in the assay with BX 795 + Dasatinib (first compound 0.04 µM), 0.334; in the assay with BX 795 + Dasatinib (first compound 0.1265 µM) it was 0.315; with BX 795 + Dasatinib (first compound 0.4 µM), 0.367; with BX 795 + Dasatinib (first compound 1.265 µM) it was 0.299. The relative viability is 0.235 in the assay with BX 795 + Phenformin (first compound 0.04 µM); 0.278 with BX 795 + Phenformin (first compound 0.1265 µM); 0.245 with BX 795 + Phenformin (first compound 0.4 µM); 0.21 with BX 795 + Phenformin (first compound 1.265 µM); 0.659 in the assay with BX 795 + AZD7762 (first compound 0.04 µM); 0.653 with BX 795 + AZD7762 (first compound 0.1265 µM). The relative viability in the assay with BX 795 + AZD7762 (first compound 0.4 µM) worked out at 0.587; in the assay with BX 795 + AZD7762 (first compound 1.265 µM) it was 0.647.

Turning to A-427, the relative viability was found to be 1.08 with BX 795 (0.04 µM); 0.905 in the assay with BX 795 (0.1265 µM); 0.998 in the assay with BX 795 (0.4 µM); 0.808 in the assay with BX 795 (1.265 µM); 1.17 with BX 795 + Linsitinib (first compound 0.04 µM); 1.13 with BX 795 + Linsitinib (first compound 0.1265 µM). Further, the relative viability with BX 795 + Linsitinib (first compound 0.4 µM) came to 1.15; in the assay with BX 795 + Linsitinib (first compound 1.265 µM), 0.982; in the assay with BX 795 + Dasatinib (first compound 0.04 µM) it was 0.796; with BX 795 + Dasatinib (first compound 0.1265 µM) it was 0.611; in the assay with BX 795 + Dasatinib (first compound 0.4 µM), 0.709; with BX 795 + Dasatinib (first compound 1.265 µM), 0.545. For the same cell line, the relative viability with BX 795 + Phenformin (first compound 0.04 µM) stood at 0.284; in the assay with BX 795 + Phenformin (first compound 0.1265 µM), 0.236; with BX 795 + Phenformin (first compound 0.4 µM), 0.277; with BX 795 + Phenformin (first compound 1.265 µM), 0.177; with BX 795 + AZD7762 (first compound 0.04 µM), 0.774; with BX 795 + AZD7762 (first compound 0.1265 µM), 0.843. Besides, the values for the relative viability in the assay with BX 795 + AZD7762 (first compound 0.4 µM) and with BX 795 + AZD7762 (first compound 1.265 µM) were 0.694 and 0.647, respectively.

Regarding LXF-289, the relative viability with BX 795 (0.04 µM) was 0.962; with BX 795 (0.1265 µM), 1; in the assay with BX 795 (0.4 µM) it was 1.02; with BX 795 (1.265 µM), 0.9; in the assay with BX 795 + Linsitinib (first compound 0.04 µM), 0.969; with BX 795 + Linsitinib (first compound 0.1265 µM) it was 0.949. The relative viability in the assay with BX 795 + Linsitinib (first compound 0.4 µM) stood at 1.03; in the assay with BX 795 + Linsitinib (first compound 1.265 µM), 0.678; with BX 795 + Dasatinib (first compound 0.04 µM) it was 0.209; with BX 795 + Dasatinib (first compound 0.1265 µM), 0.28; in the assay with BX 795 + Dasatinib (first compound 0.4 µM), 0.185; with BX 795 + Dasatinib (first compound 1.265 µM), 0.15. Besides, the relative viability was 0.464 in the assay with BX 795 + Phenformin (first compound 0.04 µM); 0.529 with BX 795 + Phenformin (first compound 0.1265 µM); 0.582 in the assay with BX 795 + Phenformin (first compound 0.4 µM); 0.467 in the assay with BX 795 + Phenformin (first compound 1.265 µM); 1.07 in the assay with BX 795 + AZD7762 (first compound 0.04 µM); 1.14 in the assay with BX 795 + AZD7762 (first compound 0.1265 µM). Besides, the relative viability amounted to 0.995 with BX 795 + AZD7762 (first compound 0.4 µM) and 1.06 in the assay with BX 795 + AZD7762 (first compound 1.265 µM).
